Measured values reported in patent publication US7135303B2, “Regulators of type-1 tumor necrosis factor receptor and other cytokine receptor shedding” (The United States of America as represented by the …, priority 2000, dated 2006).

B1: recombinant GST-ARTS-1 fusion protein (Homo sapiens) (protein)
chain: SWCQSTEASPKRSDGTPFPWNKIRLPEYVIPVHYDLLIHANLTTLTFWGTTKVEITASQPTSTIILHSHHLQISRATLRKGAGERLSEEPLQVLEHPRQEQIALLAPEPLLVGLPYTVVIHYAGNLSETFHGFYKSTYRTKEGELRILASTQFEPTAARMAFPCFDEPAFKASFSIKIRREPRHLAISNMPLVKSVTVAEGLIEDHFDVTVKMSTYLVAFIISDFESVSKITKSGVKVSVYAVPDKINQADYALDAAVTLLEFYEDYFSIPYPLPKQDLAAIPDFQSGAMENWGLTTYRESALLFDAEKSSASSKLGITMTVAHELAHQWFGNLVTMEWWNDLWLNEGFAKFMEFVSVSVTHPELKVGDYFFGKCFDAMEVDALNSSHPVSTPVENPAQIREMFDDVSYDKGACILNMLREYLSADAFKSGIVQYLQKHSYKNTKNEDLWDSMASICPTDGVKGMDGFCSRSQHSSSSSHWHQEGVDVKTMMNTWTLQKGFPLITITVRGRNVHMKQEHYMKGSDGAPDTGYLWHVPLTFITSKSDMVHRFLLKTKTDVLILPEEVEWIKFNVGMNGYYIVHYEDDGWDSLTGLLKGTHTAVSSNDRASLINNAFQLVSIGKLSIEKALDLSLYLKHETEIMPVFQGLNELIPMYKLMEKRDMNEVETQFKAFLIRLLRDLIDKQTWTDEGSVSERMLRSQLLLLACVHNYQPCVQRAEGYFRKWKESNGNLSLPVDVTLAVFAVGAQSTEGWDFLYSKYQFSLSSTEKSQIEFALCRTQNKEKLQWLLDESFKGDKIKTQEFPQILTLIGRNPVGYPLAWQFLRKNWNKLVQKFELGSSSIAHMVMGTTNQFSTRTRLEEVKGFFSSLKENGSQLRCVQQTIETIEENIGWMDKNFDKIRVWLQSEKLERM
notes: ARTS-1 extracellular domain (i.e., the ectodomain; amino acids 30–941) was PCR amplified; made in house

Tests used:
Test in all cases: ARTS-1 aminopeptidase activity assay (amide bond hydrolysis of amino acid p-nitroanilide substrates, absorbance at 380 nm)
[1] = molecular target: T1, recombinant GST-ARTS-1 fusion protein (Homo sapiens, UniProt Q9NZ08); assay type: biochemical; settings: for Vmax: aa-pNA substrate 0.25 to 8 mM, 24 pmoles GST-ARTS-1, 50 mM Tris pH 7.5, room temperature, 1 hour; for Vmax / Km: Lineweaver-Burk; for kcat / Km: aa-pNA substrate with GST-ARTS-1; for aminopeptidase activity of recombinant GST-ARTS-1 against the amino acid substrate: acidic or basic amino acid p-nitroanilide substrates
T1 construct: ARTS-1 extracellular domain (i.e., the ectodomain; amino acids 30–941) was PCR amplified; made in house
Experimental: (§1) To accomplish this, commercially available amino acid p-nitroanilide substrates were incubated with purified GST-ARTS-1 fusion protein for 1 hour under conditions of linear enzyme activity over time. The rate of amide bond hydrolysis was determined by measuring the absorbance of the p-nitroaniline aminopeptidase reaction product at 380 nm. Each experimental point was run in triplicate and each determination utilized six concentrations of amino acid p-nitroanilide substrate. Kinetic constants were determined by Lineweaver-Burk analysis. Correlation coefficients for each line generated were greater than 0.997. Each amino acid p-nitroaniline substrate tested is shown in the left colurnr, along with its polar/non-polar/acidic/basic nature. Vmax is a measure of the theoretical enzyme maximal velocity, Km is the Michaelis-Menten constant for each ARTS-1/substrate combination, kcat is the first order rate constant (i.e., the turnover number) for the ARTS-1/substrate combination, and kcat/Km is the second order rate constant for the ARTS-1/substrate combination (i.e., a measure of overall catalytic efficiency).
(§2) Aminopeptidase activity of the recombinant GST-ARTS-1 fusion protein was assessed by determination of the rate of amide bond hydrolysis of amino acid p-nitroanilide substrates (Bachem). Amino acid p-nitroanilides (final concentrations 0.25 to 8 mM) were incubated at room temperature with 24 pmoles of GST-ARTS-1 fusion protein in 200 μl of 50 mM Tris, pH 7.5 for 1 hour. Reactions were terminated by addition of 280 μl of 3M sodium acetate (pH 5.2). The rate of amide bond hydrolysis was determined by measuring the absorbance of p-nitroaniline at 380 nm (See, Table 3, supra). Spontaneous hydrolysis of the substrate was corrected for by subtracting the absorbance of control incubations which were terminated immediately. Kinetic constants were determined by Lineweaver-Burk analysis. Each experimental point was assayed in triplicate and each determination utilized six concentrations of each amino acid p-nitroanilide substrate. Correlation coefficients for each line generated were greater than 0.997.

[2] = substrate: CC[C@H](C)[C@H](N)C(=O)Nc1ccc([N+](=O)[O-])cc1; assay type: biochemical, human; settings: other: aa-pNA substrate with GST-ARTS-1; Lineweaver-Burk
Experimental: as §1, §2

[3] = substrate: N[C@@H](Cc1ccccc1)C(=O)Nc1ccc([N+](=O)[O-])cc1; assay type: biochemical, human; settings: other: aa-pNA substrate with GST-ARTS-1; Lineweaver-Burk
Experimental: as §1, §2

[4] = substrate: NCC(=O)Nc1ccc([N+](=O)[O-])cc1; assay type: biochemical, human; settings: other: aa-pNA substrate with GST-ARTS-1; Lineweaver-Burk
Experimental: as §1, §2

| Molecule | Vmax [1] | kcat [1] | Km [1] | aminopeptidase activity of recombinant GST-ARTS-1 against the amino acid substrate [1] | also measured |
| --- | --- | --- | --- | --- | --- |
| C[C@H](N)C(=O)Nc1ccc([N+](=O)[O-])cc1 [Ala] | 26.18 ± 0.24 pmol/pmol/min | 43.63 ± 0.40 s^−1 × 10^−2 | 16.8 ± 0.18 mM | – | – |
| N=C(N)NCCC[C@H](N)C(=O)Nc1ccc([N+](=O)[O-])cc1 [Arg] | No Activity | No Activity | – | no activity | – |
| N[C@@H](CC(=O)O)C(=O)Nc1ccc([N+](=O)[O-])cc1 [Asp] | No Activity | No Activity | – | no activity | – |
| N[C@@H](CS)C(=O)Nc1ccc([N+](=O)[O-])cc1 [Cys] | 8.95 ± 0.31 pmol/pmol/min | 14.92 ± 0.52 s^−1 × 10^−2 | 4.57 ± 0.2 mM | – | – |
| N[C@@H](CCC(=O)O)C(=O)Nc1ccc([N+](=O)[O-])cc1 [Glu] | No Activity | No Activity | – | no activity | – |
| NCC(=O)Nc1ccc([N+](=O)[O-])cc1 [Gly, glycine p-nitroanilide] | 8.67 ± 0.05 pmol/pmol/min | – | – | – | – |
| N[C@@H](Cc1cnc[nH]1)C(=O)Nc1ccc([N+](=O)[O-])cc1 [His] | No Activity | No Activity | – | no activity | – |
| CC[C@H](C)[C@H](N)C(=O)Nc1ccc([N+](=O)[O-])cc1 [Ile, isoleucine p-nitroanilide] | 5.81 ± 0.87 pmol/pmol/min | – | – | – | – |
| CC(C)C[C@H](N)C(=O)Nc1ccc([N+](=O)[O-])cc1 [Leu] | 9.45 ± 0.43 pmol/pmol/min | 15.75 ± 0.72 s^−1 × 10^−2 | 5.26 ± 0.25 mM | – | – |
| NCCCC[C@H](N)C(=O)Nc1ccc([N+](=O)[O-])cc1 [Lys] | No Activity | No Activity | – | no activity | – |
| CSCC[C@H](N)C(=O)Nc1ccc([N+](=O)[O-])cc1 [Met] | 13.36 ± 0.75 pmol/pmol/min | 22.27 ± 1.25 s^−1 × 10^−2 | 7.71 ± 0.43 mM | – | – |
| N[C@@H](Cc1ccccc1)C(=O)Nc1ccc([N+](=O)[O-])cc1 [Phe, phenylalanine p-nitroanilide] | 5.14 ± 0.04 pmol/pmol/min | – | – | – | – |
| O=C(Nc1ccc([N+](=O)[O-])cc1)[C@@H]1CCCN1 [Pro] | 5.29 ± 0.08 pmol/pmol/min | 8.82 ± 0.13 s^−1 × 10^−2 | 4.68 ± 0.06 mM | – | – |
| CC(C)[C@H](N)C(=O)Nc1ccc([N+](=O)[O-])cc1 [Val] | 5.31 ± 0.31 pmol/pmol/min | 8.85 ± 0.52 s^−1 × 10^−2 | 5.69 ± 0.26 mM | – | – |
| B1 | – | – | – | – | Km [2]: 1.67 ± 0.02 mM; kcat [2]: 0.0968 ± 0.0015 s⁻¹; kcat/Km [2]: 58 M⁻¹ s⁻¹; Km [3]: 1.66 ± 0.03 mM; kcat [3]: 0.0857 ± 0.0006 s⁻¹; kcat/Km [3]: 51.6 M⁻¹ s⁻¹; Km [4]: 3.67 ± 0.03 mM; kcat [4]: 0.1445 ± 0.0008 s⁻¹; kcat/Km [4]: 39.4 M⁻¹ s⁻¹ |
